Source: patent publication US8357709B2, “2,4-disubstituted pyrrolidine orexin receptor antagonists” (Merck Sharp & Dohme Corp., priority 2008, dated 2013)

Assays:
[1] = biological target: T1, orexin-1 receptor (OX1R) (UniProt O43613); experiment: radioligand binding assay, membranes from CHO cells expressing OX1 receptor; details: CHO cell membranes
T1 sequence (O43613 1-425): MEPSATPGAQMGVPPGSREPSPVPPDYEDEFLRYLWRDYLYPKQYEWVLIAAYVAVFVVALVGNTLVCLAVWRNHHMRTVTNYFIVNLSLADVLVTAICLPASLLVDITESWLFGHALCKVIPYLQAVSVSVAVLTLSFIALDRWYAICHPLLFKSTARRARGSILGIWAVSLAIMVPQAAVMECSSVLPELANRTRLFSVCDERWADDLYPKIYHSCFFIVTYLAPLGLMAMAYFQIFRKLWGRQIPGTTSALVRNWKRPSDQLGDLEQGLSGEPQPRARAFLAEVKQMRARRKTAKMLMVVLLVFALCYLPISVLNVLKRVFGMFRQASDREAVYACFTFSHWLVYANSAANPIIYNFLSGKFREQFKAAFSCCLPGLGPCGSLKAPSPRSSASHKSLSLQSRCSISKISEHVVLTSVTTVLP
Method: (§1) The utility of the compounds in accordance with the present invention as orexin receptor OX1R and/or OX2R antagonists may be readily determined without undue experimentation by methodology well known in the art, including the “FLIPR Ca^2+ Flux Assay” (Okumura et al., Biochem. Biophys. Res. Comm. 280:976-981, 2001). In a typical experiment the OX1 and OX2 receptor antagonistic activity of the compounds of the present invention was determined in accordance with the following experimental method. […] Within the Fluorescent Imaging Plate Reader (FLIPR, Molecular Devices), test compounds are added to the plate in a volume of 25 ul, incubated for 5 min and finally 25 ul of agonist is added. Fluorescence is measured for each well at 1 second intervals for 5 minutes and the height of each fluorescence peak is compared to the height of the fluorescence peak induced by 70 pM Ala-6,12 orexin-A with buffer in place of antagonist. […] Alternatively, compound potency can be assessed by a radioligand binding assay (described in Bergman et. al. Bioorg. Med. Chem. Lett. 2008, 18, 1425-1430) in which the inhibition constant (Ki) is determined in membranes prepared from CHO cells expressing either the orexin-1 (OX1) or orexin-2 (OX2) receptor. The intrinsic orexin receptor antagonist activity of a compound which may be used in the present invention may be determined by these assays.

[2] = biological target: T2, orexin-2 receptor (OX2R) (Homo sapiens, UniProt O43614); experiment: radioligand binding assay, membranes from CHO cells expressing OX2 receptor; details: CHO cell membranes
T2 construct: expressed in transfected cells; host or cells: CHO cells (membrane preparation)
T2 sequence (O43614 1-444): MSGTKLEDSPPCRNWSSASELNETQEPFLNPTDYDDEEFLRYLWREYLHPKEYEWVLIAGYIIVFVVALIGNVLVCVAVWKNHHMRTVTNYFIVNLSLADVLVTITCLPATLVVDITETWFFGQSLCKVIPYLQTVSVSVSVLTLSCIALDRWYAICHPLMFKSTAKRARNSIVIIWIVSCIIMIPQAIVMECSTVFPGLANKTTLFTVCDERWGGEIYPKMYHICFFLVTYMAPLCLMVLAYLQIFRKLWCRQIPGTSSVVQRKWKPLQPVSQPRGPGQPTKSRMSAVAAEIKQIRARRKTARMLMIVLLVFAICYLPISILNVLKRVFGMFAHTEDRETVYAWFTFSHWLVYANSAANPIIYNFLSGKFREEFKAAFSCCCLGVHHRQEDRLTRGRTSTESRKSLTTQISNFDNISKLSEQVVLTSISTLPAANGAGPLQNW
Method: as §1

Row | Ki [1] | Ki [2] | SMILES
1 | 230 nM | 10 nM | Cc1ccc(-n2nccn2)c(C(=O)N2CC(COc3ccc(F)cn3)CC2C)c1 (racemic) [A-7, 5-fluoro-2-({5-methyl-1-[5-methyl-2-(2H-1,2,3-triazol-2-yl)benzoyl]pyrrolidin-3-yl}methoxy)pyridine]
2 | 37 nM | 5.1 nM | Cc1ccc(-n2nccn2)c(C(=O)N2CC(COc3ccc(F)cn3)CC2C)c1 (single isomer, unassigned) [A-8]
